Test results: US20160303245A1, “FATTY ACID DERIVATIVES OF DIMERIC INHIBITORS OF PSD-95” (UNIVERSITY OF COPENHAGEN, priority 2013, published 2016)
Where two headings read alike, the source gives them in different places.

What was measured:
[1] = In vitro plasma stability assay (modified, GnHCl before TCA precipitation); type: in vitro ADME; conditions: human plasma; for half-life: 1st order decay fit
Protocol: The plasma-stability of 1, 4, 7 and 13 was evaluated in a modified version of an in vitro plasma stability assay (Bach et al, Angew. Chem, Int. Ed, 2009, 48, 9685-9689). In the original procedure, the investigated compound was incubated in human plasma. Samples were then taken out at appropriate timepoints and the serum proteins were removed by precipitation with trichloroacetic acid (TCA) followed by analysis of the supernatants by RP-HPLC. The obtained peak areas were normalized to the amount at T0 and fitted to a 1st order decay model to calculate the half-life. When this method was applied to the FA-linked dimeric ligands, sample recoveries were low (<5%). This was caused by the removal of the FA-linked dimeric ligands as HSA-bound complexes during the TCA precipitation. Therefore dissolution of the sample in solid guanidine hydrochloride (GnHCI) to a final concentration of 6M was performed prior to the TCA precipitation. The purpose of this was to unfold the HSA in the sample, releasing the FA-linked dimeric ligand.

HSA = target: T1, HSA (Homo sapiens, UniProt P02768); assay: Transil XL HSA binding assay (immobilized HSA, unbound compound quantified by RP-HPLC)
T1 construct: purchased Sovicell GMBH, Leipzig, Germany
Protocol: The synthesized FA-linked dimeric ligands (1-12) were evaluated for their HSA affinity using a Transil^XL HSA binding assay kit (Sovicell GMBH, Leipzig, Germany). […] The assay kit consisted of prefilled wells with increasing concentrations of immobilized HSA as well as two control wells without HSA. The HSA had been immobilized in a random fashion to ensure that all binding sites on HSA were available. To conduct the assay, the wells were incubated with a known concentration of the tested compounds, and the unbound amount of compound was quantified using analytical RP-HPLC (C8 column). The fraction of unbound drug (fu) for each data point was calculated from the RP-HPLC data by comparison to a control sample without HSA. […] In eq. 1, it is assumed that the concentration of drug-bound HSA ([HSA-D]) is much lower than the total concentration of HSA in the well ([HSA-D]<<cHSA). The assay kit has been designed such that the assumption is valid for compounds where fu>1%. The calculated KD-values were used to calculate fb at physiological concentration of HSA (588 μM) using equation 2.

[2] = In vivo pharmacokinetics, blood concentration by LC-MS/MS after single s.c. bolus injection; parameters: species or system male Wistar rats; conditions: sc, rat
From the text: To determine the pharmacokinetic properties of FA-linked compounds we measured the concentration of selected compounds in blood by LC-MS/MS following a single subcutaneous (s.c.) bolus injection in male Wistar rats (FIG. 5). From this, it was apparent that all FA-linked dimeric ligands have longer T1/2 and greater Tmax than dimeric ligand without FA (UCCB01-125) (Table 4 and FIG. 5). […] The increased Tmax is explained by a prolonged absorption from the injection site. Overall, these properties enable administration by s.c.depot injections and thereby slow and consistent release of compound into the blood, whereby fewer administrations are needed to maintain pharmaceutical relevant blood concentrations.

PSD-95 PDZ1-2 = PSD-95 PDZ1-2 (Homo sapiens, UniProt P78352); assay: In vitro fluorescence polarization (FP) competition binding assay, in TBS and modified with 1% HSA
Protocol: Affinity to PSD-95 was measured using an in vitro fluorescence polarization (FP) assay as described by Bach et al (PNAS USA, 2012, 109, 3317-3322). First, a saturation binding curve was obtained to determine KD values for the interaction between a dimeric fluorescent probe and PSD-95 PDZ1-2. Increasing concentrations of PDZ1-2 were added to a constant concentration (0.5 nM) of the probe. The fluorescence polarization of the samples was measured at excitation/emission wavelengths of 635/670 nm and the FP values were fitted to a one site binding model using the program GraphPad Prism. […] The FP values were fitted to a one site competition (variable slope) model in GraphPad Prism. The resulting IC50 were converted to competition inhibition constants, Ki values, as described (Nikolovska-Coleska et al, Anal Biochem, 2004, 332, 261-273). The modified FP assay was conducted as described above with 1% HSA in the assay. The synthesized FA-linked dimeric ligands were evaluated for their affinity to PSD-95 PDZ1-2 in the FP assay. […] We first measured the affinities using a simple tris-buffered saline (TBS) buffer (Table 2, FIG. 3A); but furthermore, we investigated if HSA influenced the ability of the FA-linked dimers to bind PSD95 PDZ1-2 by conducting the FP assay with HSA present in the assay buffer (Table 2, FIG. 3B). […] For a traditional small-molecule drug, it is commonly accepted that the unbound fraction of the drug is free to diffuse across membranes and exerts the physiological effect by interacting with its target (Berezhkovskiy et al, J Pharm Sci 2007, 96, 249-257). I.e. if the drug is bound to another molecule, then it cannot interact with the target at the same time.

[3] = dose 3 mg/kg, mean ± SEM, n = 3
[4] = dose 30 mg/kg, mean ± SEM, n = 3
[5] = FP data (TBS+HSA) corrected for calculated fu, read-out: Ki(PSD95), free ligand
[6] = FP in TBS with 1% HSA (~150 μM), mean ± SEM, n ≧ 3, read-out: Ki(PSD95) + HSA
[7] = FP in TBS, mean ± SEM, n ≧ 3, read-out: Ki(PSD95)
[8] = dose 10 mg/kg, mean ± SEM, n = 3
[9] = dose 15 mg/kg, mean ± SEM, n = 3

T1 sequence (P02768 25-609): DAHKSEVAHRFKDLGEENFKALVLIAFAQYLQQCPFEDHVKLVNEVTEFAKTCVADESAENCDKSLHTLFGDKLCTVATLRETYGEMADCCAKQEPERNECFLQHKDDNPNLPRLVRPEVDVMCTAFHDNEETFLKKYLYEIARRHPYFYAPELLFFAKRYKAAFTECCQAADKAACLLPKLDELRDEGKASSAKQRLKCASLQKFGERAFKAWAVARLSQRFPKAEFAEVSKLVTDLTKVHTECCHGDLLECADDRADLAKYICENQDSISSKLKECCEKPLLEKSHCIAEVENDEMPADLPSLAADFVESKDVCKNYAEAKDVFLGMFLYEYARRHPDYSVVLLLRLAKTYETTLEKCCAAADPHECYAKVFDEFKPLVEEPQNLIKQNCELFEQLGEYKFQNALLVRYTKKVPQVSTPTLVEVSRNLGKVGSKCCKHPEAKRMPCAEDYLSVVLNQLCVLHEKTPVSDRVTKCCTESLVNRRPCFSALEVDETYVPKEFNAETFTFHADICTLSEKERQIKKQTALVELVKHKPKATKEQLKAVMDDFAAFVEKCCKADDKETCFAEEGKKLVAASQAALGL
Chain of PSD-95 PDZ1-2 (P78352 61-249 limits assumed): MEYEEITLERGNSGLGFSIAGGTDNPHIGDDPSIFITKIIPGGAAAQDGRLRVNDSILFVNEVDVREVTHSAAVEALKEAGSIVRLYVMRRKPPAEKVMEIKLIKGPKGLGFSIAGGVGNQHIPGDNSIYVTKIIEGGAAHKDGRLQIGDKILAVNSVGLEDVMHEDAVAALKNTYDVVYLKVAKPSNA

half-life [1] | Kd (HSA) | fraction unbound (HSA) | Tmax [2, 3] | half-life [2, 3] | Tmax [2, 4] | half-life [2, 4] | In vitro plasma stability [1] | Ki (PSD-95 PDZ1-2; [5]) | Ki (PSD-95 PDZ1-2; [6]) | Ki (PSD-95 PDZ1-2; [7]) | Tmax [2, 8] | half-life [2, 8] | half-life ([2]; single s.c. bolus injection) | Tmax [2, 9] | half-life [2, 9] | Structure (SMILES)
1.7 h | 154 µM | 0.507 | 0.5 h | 0.561 ± 0.101 h | 0.5 h | 0.45 ± 0.068 h |  |  |  |  |  |  |  |  |  | CC[C@H](C)[C@H](NC(=O)CCOCCOCCOCCOCCOCCC(=O)N[C@H](C(=O)N[C@@H](CCC(=O)O)C(=O)N[C@H](C(=O)N[C@@H](C)C(=O)N[C@H](C(=O)O)C(C)C)[C@@H](C)O)[C@@H](C)CC)C(=O)N[C@@H](CCC(=O)O)C(=O)N[C@H](C(=O)N[C@@H](C)C(=O)N[C@H](C(=O)O)C(C)C)[C@@H](C)O [UCCB01-125, reference compound]
> 24 h | 6.8 ± 1.2 µM | 0.043 |  |  |  |  | highly stable | 0.0591 µM | 1.39 ± 0.184 µM | 0.017 µM | 6 ± 1.15 h | 10.7 ± 0.58 h | > 8 h |  |  | CCCCCCCCCCCCCCCCCC(=O)N[C@@H](CCC(=O)N(CCOCCOCCC(=O)N[C@H](C(=O)N[C@@H](CCC(=O)O)C(=O)N[C@H](C(=O)N[C@@H](C)C(=O)N[C@H](C(=O)O)C(C)C)[C@@H](C)O)[C@@H](C)CC)CCOCCOCCC(=O)N[C@H](C(=O)N[C@@H](CCC(=O)O)C(=O)N[C@H](C(=O)N[C@@H](C)C(=O)N[C@H](C(=O)O)C(C)C)[C@@H](C)O)[C@@H](C)CC)C(=O)O [Compound 7]
> 24 h | 19.4 ± 3.6 µM | 0.115 |  |  |  |  | highly stable | 0.654 ± 0.034 µM | 5.72 ± 0.298 µM | 0.0114 ± 0.0006 µM |  |  | > 8 h | 4.67 ± 0.66 h | 8.13 ± 0.5 h | CC[C@H](C)[C@H](NC(=O)CCOCCOCCN(CCOCCOCCC(=O)N[C@H](C(=O)N[C@@H](CCC(=O)O)C(=O)N[C@H](C(=O)N[C@@H](C)C(=O)N[C@H](C(=O)O)C(C)C)[C@@H](C)O)[C@@H](C)CC)C(=O)CCCNC(=O)CCCCCCCCCCCCCCCCC(=O)O)C(=O)N[C@@H](CCC(=O)O)C(=O)N[C@H](C(=O)N[C@@H](C)C(=O)N[C@H](C(=O)O)C(C)C)[C@@H](C)O [Compound 4]
23.6 h |  | 0.151 |  |  |  |  | degraded faster |  |  |  |  |  |  | 0.833 ± 0.167 h | 0.768 ± 0.045 h | CCCCCCCCCCCC(=O)NCCCC(=O)N(CCOCCOCCC(=O)N[C@H](C(=O)N[C@@H](CCC(=O)O)C(=O)N[C@H](C(=O)N[C@@H](C)C(=O)N[C@H](C(=O)O)C(C)C)[C@@H](C)O)[C@@H](C)CC)CCOCCOCCC(=O)N[C@H](C(=O)N[C@@H](CCC(=O)O)C(=O)N[C@H](C(=O)N[C@@H](C)C(=O)N[C@H](C(=O)O)C(C)C)[C@@H](C)O)[C@@H](C)CC [Compound 1]
> 24 h | 83 µM | 0.356 |  |  |  |  | highly stable |  |  |  | 8 h | 16.3 ± 2.81 h | > 8 h |  |  | CCCCCCCCCCCCCCCCCC(=O)NCCCC(=O)N(CCOCCOCCC(=O)N[C@H](C(=O)N[C@@H](CCC(=O)O)C(=O)N[C@H](C(=O)N[C@@H](CC(=O)O)C(=O)N[C@H](C(=O)O)C(C)C)[C@@H](C)O)[C@@H](C)CC)CCOCCOCCC(=O)N[C@H](C(=O)N[C@@H](CCC(=O)O)C(=O)N[C@H](C(=O)N[C@@H](CC(=O)O)C(=O)N[C@H](C(=O)O)C(C)C)[C@@H](C)O)[C@@H](C)CC [Compound 13]
